Experimental data reported in US6475790B2, “Assay for screening agents that alter angiogenesis” (Biocure Limited, priority 1997, dated 2002).
Entries after “also recorded” stand apart in the source; their conditions may differ.

Test system: co-culture of Human Umbilical Vein Endothelial Cells (HUVEC) with Human Adult Dermal Fibroblasts
Assay: multicellular in vitro angiogenesis (tubule) assay, dual culture of HUVEC and fibroblasts
Assay type: cell-based
Settings: VEGF 10 ngml^-1 added at the start and at each medium change; 14 days; von Willebrand factor immunoassay
Excerpt: The assay system involves co-culture of Human Umbilical Vein Endothelial Cells (HUVEC) with Human Adult Dermal Fibroblasts. Under the conditions provided the cells form a series of anastomosed tubules.
The Human Umbilical Vein Endothelial Cells (HUVEC) are commercially available from suitable outlets and in this case are bought in cryopreserved form. Prior to employment in the tubule assay, the cells are routinely passed and cultured in any suitable commercially available Endothelial Growth Medium, EGM, containing 2% foetal calf serum. The HUVEC are used at passes 2 to 6 in the assay.
The Human Adult Dermal Fibroblasts are cultured from skin samples which may be obtained from local hospitals. […]
The tissue culture treated vessels to be used in the assay are equilibrated by pre-incubation with EGM, plus and minus treatments, for a period of 30 minutes at 37° C., 5% CO2 humidified atmosphere. […] The cells are resuspended in EGM and counted. […] The techniques and materials involved in culturing endothelial cells are well known to persons of skill in the art, and are readily available from standard texts. […]
Visualization of the tubules is accomplished most readily by an immunoassay that targets a cell marker on one or both of the cells being cultured. […]

VEGF
tubule formation: marked increase; also recorded: much enhanced
